Measured values published in US20230193262A1, “Nucleic acid molecules capable of modulating target gene expression and uses thereof” (KOREA ADVANCED INSTITUTE OF SCIENCE AND TECHNOLOGY, priority 2021, published 2023).

Key:
[1] = system: cleaved PARP; test: Western blot of apoptotic marker cleaved PARP; type: cell-based; settings: blood cancer cell line HL-60
Description: miRNA triggers were transfected into cells in the same manner as in Reference Example 4. After 72 hours, the cells were collected using a cell scraper and lysed with a RIPA buffer (NaCl 150 mM, EDTA 5 mM, Tris 50 mM, NP-40 1.0%, sodium deoxycholate 0.5%, SDS 0.1%). The cell lysate was sonicated 15 times, each for 20 sec, with a halt for 30 sec every sonication. Following centrifugation at 5,000 g for 5 min, the supernatant was taken and used to extract proteins therefrom. A total of 30-40 μg of protein sample was separated in 10-15% SDS-PAGE gel and transferred onto a PVDF membrane through a semi-dry blotting system. The membrane was blocked for 1 hour in 5% skimmed milk and incubated for 2 hours with a 1,000-fold dilution of a primary antibody in, 1% skimmed milk. […] The membrane incubated with the secondary antibody was washed three times with 1×PBST for 10 min each wash, and then reacted with Clarity Western ECL Substrate (#1705061, Bio-Rad), after which images were obtained and analyzed using ChemiDoc (Bio-rad, Hercules, USA). […]
The cells transfected with the selected miRNA triggers were measured for protein expression levels of the target Bcl-xL and the apoptotic marker cleaved PARP through western blotting, and the results are depicted in FIG. 32b.

[2] = system: MCF-7 breast cancer cells; test: Cell viability / apoptosis in MCF-7; type: cell-based; settings: single siRNA, final concentration 60 nM
Description: The miRNA triggers were assayed for cytotoxicity and apoptosis induction, using the CCK-8 (Cell Counting Kit-8) (Dojindo, Kumamoto, Japan) according to the manufacturer's instruction. Cells were incubated in 96-well plates (5×10^3 cells/well) at 37° C. for 24 hours under a 5% CO2 atmosphere, followed by transfection. Three days after transfection, the medium was removed. A 10-fold dilution of CCK-8 solution in DMEM was added to the cells which were then incubated at 37° C. for 2 hours. After incubation, absorbance was read at 450 nm on Tecan Infinite M200 pro microplate reader (Mnnedorf, Switzerland).
An siRNA targeting bcl-2, bcl-xL, or mcl-1 was transfected into MCF-7 breast cancer cells and PANC-1 pancreatic cancer cells. By using qRT-PCR, establishment was made of a condition under which the expression of each target gene is decreased by 80% or more (transfection was performed at a concentration of 60 nM with the aid of Lipofectamine). As a negative control, a Luc (Luciferase)-targeting siRNA (siLuc) was used. Under the same condition of decreasing the expression of each target gene by 80% or more, the cells transfected with the siRNAs were measured for apoptosis, and the results are depicted in FIGS. 14a and 14b.
Linear miRNA triggers that could bind to miR-141 or let7f and target bcl-xL or mcl-1 were prepared and transfected alone or in combination into the breast cancer cell line MCF-7 which was then measured for cell viability. Every nucleotide of the triggers and controls was chemically modified with 2′-OMe.
First, MCF-7 was measured for cell viability after treatment with siMCL-1, siBCL-xL, and siBCL-2 (FIG. 48). […] The final concentration of the siRNAs was 60 nM.
Next, examination was made of the apoptosis when two or more genes were regulated together. MCF-7 was measured for cell viability after treatment with siMCL-1+siBCL-xL, siMCL-1+siBCL-2, siBCL-xL+siBCL-2, and siMCL-1+siBCL-xL+siBCL-2 (FIG. 49).
Finally, experiments under all the conditions (individual and simultaneous regulation) were conducted simultaneously so as to compare effects thereof. […]

With “siBcl-2: siRNA targeting bcl-2; SEQ ID NO 62 (AUCAAUCUUCAGCACUCUC; listed as RNA, chemistry not given here)” the “expression of the apoptotic marker cleaved PARP” value [1] was “upregulated” and the “apoptosis (cell viability)” value [2] was “apoptosis was detected”.
